Reference: patent US11464770B2, “Anticancer pharmaceutical composition” (NATIONAL CANCER CENTER, priority 2016, dated 2022)
Read-outs that look alike come from different tables or passages of the source.

Experiments:
[1] = system: pancreatic cancer cell lines (e.g. MIA PaCa-2); assay: Cell based assay, cell viability (CellTiter-Glo), pancreatic cancer cell lines; settings: Homo sapiens
In short: (§1)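 Read-out is ATP-dependent luminescence (CellTiter-Glo) taken after 72 h of exposure to compound at final concentrations from 0 to 2 μM. Cells were plated 24 h beforehand.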

[2] = system: ovarian cancer cell lines; assay: Cell based assay, cell viability (CellTiter-Glo), ovarian cancer cell lines; settings: Homo sapiens; OVCAR-3 cells
In short: as §1

[3] = system: zebrafish; assay: Cardiotoxicity experiment using zebrafish (heart rate, lethality); type: in vivo; settings: 5 uM, n = 10
[4] = Cell based assay, cytotoxicity in RT4 papilloma cells (selectivity); design: species or system human; settings: human; RT4 cells (benign), 72 hours
[5] = system: MBT-2: Mouse bladder transitional cell carcinoma; assay: Cell based assay, cytotoxicity in MBT-2 cells; settings: 72 hours
Protocol: (§2) Commercially available bladder cancer, prostate cancer, lung cancer, breast cancer, blood cancer, pancreatic cancer, colorectal cancer, brain cancer, neuroblastoma, melanoma, liver cancer, cervical carcinoma, ovarian cancer, renal cancer, and papilloma cell lines were each treated with trypsin-EDTA and cultured, followed by being seeded in each well of a 96 well plate. After 24 hours of treatment at constant temperature, the respective cells were treated with the candidate compound so that a final concentration became 0 to 2 μM. The treated cells were additionally cultured for 72 hours, and cell viability was measured by using an ATP detection method (CellTiter-Glo® Luminescent Cell Viability Assay, Promega).

[6] = system: KU-19-19: Bladder carcinoma; assay: Cell based assay, cytotoxicity in KU19-19 cells; settings: Homo sapiens, 72 hours
Protocol: as §2

[7] = system: UM-UC-3: human urinary bladder transitional cell carcinoma; assay: Cell based assay, cytotoxicity in UM-UC-3 cells; settings: UMUC3, 72 hours
Protocol: as §2

[8] = pancreatic cancer cell line AsPC-1, 72 hours, read-out: IC50, AsPC-1
[9] = pancreatic cancer cell line BxPC-3, 72 hours, read-out: IC50, BxPC-3
[10] = pancreatic cancer cell line CFPAC-1, 72 hours, read-out: IC50, CFPAC-1
[11] = pancreatic cancer cell line Capan-1, 72 hours, read-out: IC50, Capan-1
[12] = pancreatic cancer cell line Capan-2, 72 hours, read-out: IC50, Capan-2
[13] = pancreatic cancer cell line MIA PaCa-2, 72 hours, read-out: IC50, MIA PaCa-2
[14] = pancreatic cancer cell line PANC-1, 72 hours, read-out: IC50, PANC-1

Row | IC50 [1, 8] | IC50 [1, 9] | IC50 [1, 10] | IC50 [1, 11] | IC50 [1, 12] | IC50 [1, 13] | IC50 [1, 14] | IC50 [2] | Structure (SMILES) | Changes (%) in heart rate ([3]; mean) | Lethality [3] | IC50 at 72 h [4] | IC50 [5] | IC50 [6] | IC50 [7]
1 | > 2 µM | > 2 µM | > 10 µM | > 2 µM | > 2 µM | > 2 µM | > 2 µM | > 2 µM | COc1ccccc1Sc1[nH]c2c(Br)ccc(Cl)c2c(=O)c1C(C)=O [Compound 14, 3-acetyl-8-bromo-5-chloro-2-((2-methoxyphenyl)thio)quinolin-4(1H)-one] |  |  |  |  |  | 
2 | > 2 µM | > 2 µM | > 10 µM | > 2 µM | > 2 µM | > 2 µM | > 2 µM | > 2 µM | CC(=O)c1c([S+]([O-])CN2C(=O)c3ccccc3C2=O)[nH]c2c(Cl)ccc(Cl)c2c1=O (stereo not drawn) [Compound 90, 2-(((3-acetyl-5,8-dichloro-4-oxo-1,4-dihydroquinolin-2-yl)sulfinyl)methyl)isoindoline-1,3-dione] |  |  |  |  |  | 
3 | 1.49 µM | > 2 µM | > 10 µM | 1.99 µM | > 2 µM | 0.72 µM | > 2 µM | 0.63 µM | CC(=O)c1c([S+]([O-])Cc2ccc(-n3cccn3)nc2)[nH]c2c(Br)ccc(Cl)c2c1=O (stereo not drawn) [Compound 99, 2-(((6-(1H-pyrazol-1-yl)pyridin-3-yl)methyl)sulfinyl)-3-acetyl-8-bromo-5-chloroquinolin-4(1H)-one] |  |  | > 10 µM | 0.47 µM | 1.12 µM | 0.77 µM
4 | > 2 µM | > 2 µM | > 10 µM | > 2 µM | > 2 µM | > 2 µM | > 2 µM | > 2 µM | CC(=O)c1c(SCc2cccc(F)c2)[nH]c2c(Br)ccc(Cl)c2c1=O [Compound 49, 3-acetyl-8-bromo-5-chloro-2-((3-fluorobenzyl)thio)quinolin-4(1H)-one] |  |  |  |  |  | 
5 | > 2 µM | > 2 µM | > 10 µM | > 2 µM | > 2 µM | > 2 µM | > 2 µM | > 2 µM | CC(=O)c1c([S+]([O-])Cc2ccc(Cl)cc2)[nH]c2c(Br)ccc(Cl)c2c1=O (stereo not drawn) [Compound 11, 3-acetyl-8-bromo-5-chloro-2-((4-chlorobenzyl)sulfinyl)quinolin-4(1H)-one] |  |  |  |  |  | 
6 | > 2 µM | > 2 µM | > 10 µM | > 2 µM | > 2 µM | > 2 µM | > 2 µM | > 2 µM | CC(=O)c1c([S+]([O-])Cc2ccc(SC(F)(F)F)cc2)[nH]c2c(Cl)ccc(Cl)c2c1=O (stereo not drawn) [Compound 79, 3-acetyl-5,8-dichloro-2-((4-((trifluoromethyl)thio)benzyl)sulfinyl)quinolin-4(1H)-one] |  |  |  |  |  | 
7 | > 2 µM | > 2 µM | > 10 µM | > 2 µM | > 2 µM | > 2 µM | > 2 µM | > 2 µM | CSc1c(C(C)=O)c(=O)c2c(Cl)ccc(Br)c2n1S(C)(=O)=O [Compound 35, 3-acetyl-8-bromo-5-chloro-1-(methylsulfonyl)-2-(methylthio)quinolin-4(1H)-one] |  |  |  |  |  | 
8 | > 2 µM | > 2 µM | > 10 µM | 1.59 µM | > 2 µM | 0.79 µM | > 2 µM | 0.84 µM | CC(=O)c1c([S+]([O-])Cc2ccc(Cl)nc2)[nH]c2c(Br)ccc(Cl)c2c1=O (stereo not drawn) [Compound 104, 3-acetyl-8-bromo-5-chloro-2-(((6-chloropyridin-3-yl)methyl)sulfinyl)quinolin-4(1H)-one] |  |  |  |  |  | 
9 | > 2 µM | > 2 µM | > 10 µM | > 2 µM | > 2 µM | > 2 µM | > 2 µM | > 2 µM | COc1cccc2[nH]c([S+]([O-])Cc3ccc(S(F)(F)(F)(F)F)cc3)c(C(C)=O)c(=O)c12 (stereo not drawn) [Compound 93, 3-acetyl-5-methoxy-2-((4-(pentafluoro--sulfanyl)benzyl)sulfinyl)quinolin-4(1H)-one] |  |  |  |  |  | 
10 | > 2 µM | > 2 µM | > 10 µM | > 2 µM | > 2 µM | > 2 µM | > 2 µM | > 2 µM | CC(=O)c1c(S)[nH]c2c(Br)ccc(Cl)c2c1=O [Compound 62, 3-acetyl-8-bromo-5-chloro-2-mercaptoquinolin-4(1H)-one] |  |  |  |  |  | 
11 | > 2 µM | > 2 µM | > 10 µM | > 2 µM | > 2 µM | > 2 µM | > 2 µM | > 2 µM | CC(=O)c1c(SCc2cc(Cl)ccc2Cl)[nH]c2c(Br)ccc(Cl)c2c1=O [Compound 43, 3-acetyl-8-bromo-5-chloro-2-((2,5-dichlorobenzyl)thio)quinolin-4(1H)-one] |  |  |  |  |  | 
12 | > 2 µM | > 2 µM | > 10 µM | > 2 µM | > 2 µM | 0.81 µM | > 2 µM | 0.7 µM | CC(=O)c1c([S+]([O-])Cc2ccccc2C#N)[nH]c2c(Br)ccc(Cl)c2c1=O (stereo not drawn) [Compound 58, 2-(((3-acetyl-8-bromo-5-chloro-4-oxo-1,4-dihydroquinolin-2-yl)sulfinyl)methyl)benzonitrile] |  |  |  |  |  | 
13 | > 2 µM | > 2 µM | > 10 µM | > 2 µM | > 2 µM | > 2 µM | > 2 µM | > 2 µM | CC(=O)c1c([S+]([O-])Cc2nonc2C)[nH]c2c(Br)ccc(Cl)c2c1=O (stereo not drawn) [Compound 106, 3-acetyl-8-bromo-5-chloro-2-(((4-methyl-1,2,5-oxadiazol-3-yl)methyl)sulfinyl)quinolin-4(1H)-one] |  |  |  |  |  | 
14 | > 2 µM | > 2 µM | > 10 µM | > 2 µM | > 2 µM | 1.12 µM | > 2 µM | 1.16 µM | CC(=O)c1c([S+]([O-])Cc2ccc(S(F)(F)(F)(F)F)cc2)[nH]c2c(Br)ccc(Cl)c2c1=O (stereo not drawn) [Compound 68, 3-acetyl-8-bromo-5-chloro-2-((4-(pentafluoro-16-sulfanyl)benzyl)sulfinyl)quinolin-4(1H)-one] |  |  |  |  |  | 
15 | > 2 µM | > 2 µM | > 10 µM | > 2 µM | > 2 µM | > 2 µM | > 2 µM | > 2 µM | CC(=O)c1c([S+]([O-])c2ccc(Br)cc2)[nH]c2c(Br)ccc(Cl)c2c1=O (stereo not drawn) [Compound 17, 3-acetyl-8-bromo-2-((4-bromophenyl)sulfinyl)-5-chloroquinolin-4(1H)-one] |  |  |  |  |  | 
16 | > 2 µM | > 2 µM | > 10 µM | > 2 µM | > 2 µM | > 2 µM | > 2 µM | > 2 µM | CSc1[nH]c2c(Br)ccc(Cl)c2c(=O)c1C(C)=O [Compound 2, 3-acetyl-8-bromo-5-chloro-2-(methylthio)quinolin-4(1H)-one] |  |  |  |  |  | 
17 | > 2 µM | > 2 µM | > 10 µM | > 2 µM | > 2 µM | > 2 µM | > 2 µM | > 2 µM | CSc1c(C(C)=O)c(=O)c2c(Cl)ccc(Br)c2n1C [Compound 5, 3-acetyl-8-bromo-5-chloro-1-methyl-2-(methylthio)quinolin-4(1H)-one] |  |  |  |  |  | 

Row | Structure (SMILES) | IC50 [1, 8] | IC50 [1, 9] | IC50 [1, 10] | IC50 [1, 11] | IC50 [1, 12] | IC50 [1, 13] | IC50 [1, 14] | IC50 [2] | Changes (%) in heart rate ([3]; mean) | Lethality [3] | IC50 at 72 h [4] | IC50 [5] | IC50 [6] | IC50 [7]
18 | CC(=O)c1c([S+]([O-])Cc2ccccc2)nc2c(Br)ccc(Cl)c2c1O (stereo not drawn) [Compound 4] | > 2 µM | > 2 µM | > 10 µM | > 2 µM | > 2 µM | 1.34 µM | > 2 µM | 0.81 µM | 88.5% | 1/10 |  |  |  | 
